23 compounds from patent publication US7417053B2, “Pyrazolo[1,5-a]pyridine derivatives or pharmaceutically acceptable salts thereof” (Teijin Pharma Limited, priority 2005, dated 2008) can be followed below.

pIC50: −log10 of the molar value. Counter-ions that a name gives are not always drawn.

Chain of recombinant human MAPKAP-K2 (P49137 whole entry): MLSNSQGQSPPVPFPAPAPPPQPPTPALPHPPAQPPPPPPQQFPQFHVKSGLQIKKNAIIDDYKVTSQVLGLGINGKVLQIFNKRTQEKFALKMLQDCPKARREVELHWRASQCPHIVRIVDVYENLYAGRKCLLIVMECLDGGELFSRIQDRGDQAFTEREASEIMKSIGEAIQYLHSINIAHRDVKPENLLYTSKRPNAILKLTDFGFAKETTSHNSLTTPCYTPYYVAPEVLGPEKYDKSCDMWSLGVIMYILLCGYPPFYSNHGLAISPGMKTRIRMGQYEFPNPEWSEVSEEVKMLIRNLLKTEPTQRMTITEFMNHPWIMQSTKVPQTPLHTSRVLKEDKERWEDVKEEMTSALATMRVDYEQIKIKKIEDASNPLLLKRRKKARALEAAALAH

This assay has as its target recombinant human MAPKAP-K2 (Homo sapiens, UniProt P49137). Briefly: Inhibitory activity against MAPKAP-K2 enzyme (33P-ATP peptide phosphorylation). In kind it is biochemical. To be noted: recombinant human MAPKAP-K2, ATP 20 μmol/L solution, room temperature 30 min; read-out: Activity Strength (MAPKAP-K2 IC50 value). The method, then: General Measurement Method for Determining the Inhibitory Activity Against MAPKAP-K2 enzyme
(Preparation of Solutions of Compounds)
Each compound was dissolved in DMSO to prepare a solution with a concentration of 20 mmol/L and this solution was stored at −20° C. This stock solution was diluted with DMSO successively to prepare solutions with 200-fold concentrations of a necessary range. These solutions were further diluted with water at a ratio of 1:20 to prepare solutions with 10-fold concentrations of a necessary range. Each of these solutions (5 μL) was used for each reaction in 50 μL-scale. Through the dilution series of all compounds, the final DMSO concentration was kept at 0.5%. Conventional tests for the compounds were carried out at a final concentration range from 100 μmol/L to 0.03 μmol/L. but in some cases, tests were carried out at lower concentrations, depending on activity.
(Measurements of MAPKAP-K2 Enzyme Activities)
To a 5% DMSO aqueous solution (5 μL) of a test compound, a solution (25 μL) containing a peptide substrate [peptide substrate 60 μmol/L, ATP 20 μmol/L, Tris buffer 60 mmol/L (pH 7.5), EGTA 0.2 mmol/L, β-mercaptoethanol 0.2%, magnesium acetate 20 mmol/L, [γ-33P]ATP 0.1 μCi (specific radioactivity ca. 110 TBq/mmol)] was added. The reaction was initiated by adding a solution (20 μL) containing MAPKAP-K2 enzyme [recombinant human MAPKAP-K2 10 mU, Tris buffer […] (pH 7.5), EGTA 0.1 mmol/L, β-mercaptoethanol 0.1%, BSA 0.1%]. After the reaction was carried out at room temperature for 30 min, 200 mmol/L phosphoric acid (50 μL) was added to quench the reaction, and 90 μL of the reaction mixture was adsorbed on a multiscreen PH plate (Millipore). The plate was washed with 100 mmol/L phosphoric acid. After the plate was dried, 30 μL of MicroScint-O (Perkin-Elmer) was added, and the count per minute was measured on a scintillation counter to determine the inhibitory activity. The peptide substrate was Lys-Lys-Leu-Asn-Arg-Thr-Leu-Ser-Val-Ala.
• % Reference=(X−B)/(Tot−B)×100 • % Inhibition=100−% Reference • X represents count per minute of the well with a test compound applied. • B represents count per minute of the well without the enzyme. • Tot represents count per minute of the well with only DMSO solvent and no test compound applied. (Calculation of MAPKAP-K2 Inhibitory Activity) • IC50 value represents a concentration of compound at which 50% inhibition is observed.
Broadly, the pIC50 is the negative decadic logarithm of the IC50, by convention in mol/L. For `CCOc1ccc(Nc2c(C)c(NC3CCCC(N)C3)c(C#N)c3ccnn23)cc1` (centres unmarked) [Compound 104, 5-[(3-Aminocyclohexyl)amino]-7-[(4-ethoxyphenyl)amino]-6-methylpyrazolo[1,5-a]pyridine-4-carbonitrile trifluoroacetate salt], the negative-log IC50 (pIC50) is 5.00 to 6.00.

As to `CSc1ccccc1Nc1cc(N[C@H]2CC[C@H](N)CC2)c(C#N)c2ccnn12` [Compound 99, 5-(trans-4-Aminocyclohexylamino)-7-(2-methylthiophenylamino)pyrazolo[1,5-a]pyridine-4-carbonitrile trifluoroacetate salt], the negative logarithm of the IC50 (pIC50) was 5.00 to 6.00.

In the case of `CCOc1ccc(Nc2c(C)c(NCC3CCCNC3)c(C#N)c3ccnn23)cc1` (centres unmarked) [Compound 128, 7-[(4-Ethoxyphenyl)amino]-6-methyl-5-[(3-piperidylmethyl)amino]pyrazolo[1,5-a]pyridine-4-carbonitrile trifluoroacetate salt], the pIC50 was 5.00 to 6.00.

Regarding `COCCOc1ccc(Nc2c(C)c(N[C@H]3CC[C@H](N)CC3)c(C#N)c3ccnn23)cc1` [Compound 89, 5-(trans-4-Aminocyclohexylamino)-7-[4-(2-methoxyethoxy)phenylamino]-6-methylpyrazolo[1,5-a]pyridine-4-carbonitrile trifluoroacetate salt], the pIC50 is over 6.70.

Regarding `CCOc1ccc(Nc2c(C)c(N[C@H]3CC[C@H](NCCc4ccccc4)CC3)c(C#N)c3ccnn23)cc1` [Compound 125, 7-[(4-Ethoxyphenyl)amino]-6-methyl-5-(trans-{4-[(2-phenylethyl)amino]cyclohexyl}amino]pyrazolo[1,5-a]pyridine-4-carbonitrile trifluoroacetate salt], the pIC50 was 6.00 to 6.70.

With `CCOc1ccc(Nc2c(C)c(N[C@H]3CC[C@H](N)CC3)c(C#N)c3ccnn23)cc1` [Compound 102, 5-[(trans-4-Aminocyclohexyl)amino]-7-(4-ethoxyphenylamino)-6-methylpyrazolo[1,5-a]pyridine-4-carbonitrile trifluoroacetate salt], the pIC50 was over 6.70.

Consider `CCOc1ccc(Nc2cc(N[C@H]3CCCNC3)c(C#N)c3ccnn23)cc1` [Compound 92, 5-[(3S)-3-Piperidylamino]-7-(4-ethoxyphenylamino)pyrazolo[1,5-a]pyridine-4-carbonitrile trifluoroacetate salt], for which the pIC50 was 6.00 to 6.70.

Regarding `Cc1c(N[C@H]2CCCNC2)c(C#N)c2ccnn2c1Nc1ccc2ncsc2c1` [Compound 117, 5-[((3S)-3-Piperidyl)amino]-7-(benzothiazol-6-ylamino)-6-methylpyrazolo[1,5-a]pyridine-4-carbonitrile trifluoroacetate salt], the pIC50 is over 6.70.

On to `CCOc1ccc(Nc2c(C)c(NCCC3CCCN3C)c(C#N)c3ccnn23)cc1` (centres unmarked) [Compound 133, 7-[(4-Ethoxyphenyl)amino]-6-methyl-5-{[2-(1-methylpyrrolidin-2-yl)ethyl]amino}pyrazolo[1,5-a]pyridine-4-carbonitrile trifluoroacetate salt], for which the pIC50 was 4.00 to 5.00.

For the compound `N#Cc1c(N[C@H]2CC[C@H](N)CC2)cc(Nc2ccc(-c3ccccc3)cc2)n2nccc12` [Compound 97, 5-(trans-4-Aminocyclohexylamino)-7-(4-biphenylylamino)pyrazolo[1,5-a]pyridine-4-carbonitrile trifluoroacetate salt], the pIC50 is over 6.70.

For `CCOc1ccc(Nc2c(C)c(NCCCCCCN)c(C#N)c3ccnn23)cc1` [Compound 132, 5-[(6-Amionohexyl)amino]-7-[(4-ethoxyphenyl)amino]-6-methylpyrazolo[1,5-a]pyridine-4-carbonitrile trifluoroacetate salt], the pIC50 is 4.00 to 5.00.

As to `CCOc1ccc(Nc2c(C)c(NCCCCN)c(C#N)c3ccnn23)cc1` [Compound 108, 5-[(4-Aminobutyl)amino]-7-[(4-ethoxyphenyl)amino]-6-methylpyrazolo[1,5-a]pyridine-4-carbonitrile trifluoroacetate salt], the pIC50 is 6.00 to 6.70.

For the compound `CCOc1ccc(Nc2c(C)c(NCCCN)c(C#N)c3ccnn23)cc1` [Compound 107, 5-[(3-Aminopropyl)amino]-7-[(4-ethoxyphenyl)amino]-6-methylpyrazolo[1,5-a]pyridine-4-carbonitrile trifluoroacetate salt], the pIC50 is 6.00 to 6.70.

As for `N#Cc1c(N[C@H]2CCCNC2)cc(Nc2ccc(-c3ccccc3)cc2)n2nccc12` [Compound 100, 5-[(3S)-3-Piperidylamino]-7-(4-biphenylylamino)pyrazolo[1,5-a]pyridine-4-carbonitrile trifluoroacetate salt], the negative-log IC50 (pIC50) is 6.00 to 6.70.

Take `CCOc1ccc(Nc2c(C)c(NCC3CCNC3)c(C#N)c3ccnn23)cc1` (centres unmarked) [Compound 112, 7-[(4-Ethoxyphenyl)amino]-6-methyl-5-[(pyrrolidin-3-ylmethyl)amino]pyarzolo[1,5-a]pyridine-4-carbonitrile trifluoroacetate salt]: the negative logarithm of the IC50 (pIC50) was 5.00 to 6.00.

On to `CCOc1ccc(Nc2c(C)c(NCCC3CCCCN3)c(C#N)c3ccnn23)cc1` (centres unmarked) [Compound 113, 7-[(4-Ethoxyphenyl)amino]-6-methyl-5-[(2-(2-piperidyl)ethyl)amino]pyrazolo[1,5-a]pyridine-4-carbonitrile trifluoroacetate salt], for which the pIC50 is 4.00 to 5.00.

Turning to `CCOc1ccc(Nc2c(C(C)C)c(N[C@H]3CC[C@H](N)CC3)c(C#N)c3ccnn23)cc1` [Compound 124, 5-(trans-4-Aminocyclohexylamino)-7-(4-ethoxyphenylamino)-6-(methylethyl)pyrazolo[1,5-a]pyridine-4-carbonitrile], the negative-log IC50 (pIC50) is over 6.70.

Consider `CCOc1ccc(Nc2c(C)c(NC3CNCc4ccccc43)c(C#N)c3ccnn23)cc1` (centres unmarked) [Compound 127, 7-[(4-Ethoxyphenyl)amino]-6-methyl-5-[4-(1,2,3,4-tetrahydroisoquinolyl)amino]pyrazolo[1,5-a]pyridine-4-carbonitrile trifluoroacetate salt], for which the pIC50 was 5.00 to 6.00.

Consider `CCCc1c(N[C@H]2CCCNC2)c(C#N)c2ccnn2c1Nc1ccc(OCC)cc1` [Compound 121, 5-[(3S)-3-Piperidylamino]-7-(4-ethoxyphenylamino)-6-propylpyrazolo[1,5-a]pyridine-4-carbonitrile], for which the negative-log IC50 (pIC50) was over 6.70.

For the compound `COc1ccccc1Nc1cc(N[C@H]2CC[C@H](N)CC2)c(C#N)c2ccnn12` [Compound 98, 5-(trans-4-Aminocyclohexylamino)-7-(2-methoxyphenylamino)pyrazolo[1,5-a]pyridine-4-carbonitrile trifluoroacetate salt], the negative-log IC50 (pIC50) is 6.00 to 6.70.

Take `CCc1nc2ccc(Nc3c(C)c(N[C@H]4CCCNC4)c(C#N)c4ccnn34)cc2s1` [Compound 118, 5-[((3S)-3-Piperidyl)amino]-7-[(2-ethylbenzothiazol-6-yl)amino]-6-methylpyrazolo[1,5-a]pyridine-4-carbonitrile trifluoroacetate salt]: the pIC50 is over 6.70.

On to `N#Cc1c(N[C@H]2CC[C@H](N)CC2)cc(Nc2ccccc2Cl)n2nccc12` [Compound 94, 5-(trans-4-Aminocyclohexylamino)-7-(2-chlorophenylamino)pyrazolo[1,5-a]pyridine-4-carbonitrile trifluoroacetate salt], for which the negative logarithm of the IC50 (pIC50) is 6.00 to 6.70.

For the compound `CCOc1ccc(Nc2c(C3CC3)c(N[C@H]3CCCNC3)c(C#N)c3ccnn23)cc1` [Compound 130, 5-[(3S)-3-Piperidylamino]-7-(4-ethoxyphenylamino)-6-cyclopropylpyrazolo[1,5-a]pyridine-4-carbonitrile], the pIC50 was 6.00 to 6.70.
